{"source": "paper PMC9249791", "about": "“Molecular dissection of the glutamine synthetase-GlnR nitrogen regulatory circuitry in Gram-positive bacteria” (Nature Communications, 2022)", "format_in_all_cases": "binding", "key": {"Bs GS": {"biological_target": "T1, Bs GS (Bacillus subtilis, UniProt P12425)", "T1 construct": "gene glnA; full-length, synthetic gene in pET15b, N-terminal His-tag, E. coli C41(DE3); apo dodecamer", "T1 sequence (P12425 1-444)": "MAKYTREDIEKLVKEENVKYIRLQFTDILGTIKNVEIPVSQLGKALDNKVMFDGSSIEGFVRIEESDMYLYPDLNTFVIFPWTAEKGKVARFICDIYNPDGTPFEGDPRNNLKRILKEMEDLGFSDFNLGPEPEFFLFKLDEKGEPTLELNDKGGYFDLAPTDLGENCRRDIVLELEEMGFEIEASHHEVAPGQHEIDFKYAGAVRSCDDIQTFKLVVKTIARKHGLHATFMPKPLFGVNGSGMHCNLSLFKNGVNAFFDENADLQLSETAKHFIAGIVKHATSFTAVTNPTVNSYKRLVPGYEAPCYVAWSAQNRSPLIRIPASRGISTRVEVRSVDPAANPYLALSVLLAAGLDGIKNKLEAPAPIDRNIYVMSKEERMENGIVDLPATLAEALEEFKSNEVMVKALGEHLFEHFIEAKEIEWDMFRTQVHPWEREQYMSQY", "experiment": "cryo-EM structure […] Å", "settings": "20 mM glutamine, 5 mM MgCl2, pH 7.5, with GlnR C-tail peptide; overlaps glutamate site"}, "Lm GS": {"biological_target": "T2, Lm GS (Listeria monocytogenes, UniProt A0A5D5GA79)", "T2 construct": "gene glnA; full-length, synthetic gene in pET15b, N-terminal His-tag, E. coli C41(DE3); apo dodecamer", "T2 sequence (A0A5D5GA79 1-444)": "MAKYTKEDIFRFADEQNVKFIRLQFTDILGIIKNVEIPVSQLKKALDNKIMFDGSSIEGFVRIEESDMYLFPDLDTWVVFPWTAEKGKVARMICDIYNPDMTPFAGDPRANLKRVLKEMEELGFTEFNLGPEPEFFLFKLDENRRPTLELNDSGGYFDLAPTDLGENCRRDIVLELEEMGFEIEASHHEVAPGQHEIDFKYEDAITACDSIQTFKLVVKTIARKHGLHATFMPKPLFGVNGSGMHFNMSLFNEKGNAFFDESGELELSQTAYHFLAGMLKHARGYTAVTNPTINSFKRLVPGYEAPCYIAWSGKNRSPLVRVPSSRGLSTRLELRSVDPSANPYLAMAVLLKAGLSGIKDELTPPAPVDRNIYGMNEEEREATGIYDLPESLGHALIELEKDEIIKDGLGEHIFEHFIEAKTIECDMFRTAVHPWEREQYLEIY", "experiment": "cryo-EM structure […] Å", "settings": "20 mM glutamine, 5 mM MgCl2, pH 7.5, with GlnR C-tail peptide; overlaps glutamate site"}, "Pp GS": {"biological_target": "T3, Pp GS (Paenibacillus polymyxa, UniProt A0A0F0G8G2)", "T3 construct": "gene glnA2; full-length, synthetic gene in pET15b, N-terminal His-tag (removed by thrombin for crystallography), E. coli C41(DE3)", "T3 sequence (A0A0F0G8G2 1-442)": "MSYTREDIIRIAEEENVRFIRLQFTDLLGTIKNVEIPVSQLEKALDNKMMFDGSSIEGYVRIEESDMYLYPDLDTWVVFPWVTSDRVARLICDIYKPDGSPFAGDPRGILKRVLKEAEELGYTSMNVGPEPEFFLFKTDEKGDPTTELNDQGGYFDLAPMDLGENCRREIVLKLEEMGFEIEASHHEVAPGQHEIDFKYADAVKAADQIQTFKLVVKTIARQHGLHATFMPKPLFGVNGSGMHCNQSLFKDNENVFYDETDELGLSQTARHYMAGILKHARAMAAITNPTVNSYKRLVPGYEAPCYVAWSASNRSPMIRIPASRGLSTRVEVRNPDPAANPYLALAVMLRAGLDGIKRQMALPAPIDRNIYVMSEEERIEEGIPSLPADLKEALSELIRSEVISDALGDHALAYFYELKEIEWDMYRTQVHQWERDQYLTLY", "experiment": "cryo-EM structure […]-2.[…] Å", "settings": "20 mM glutamine, 5 mM MgCl2, pH 7.5, with GlnR C-tail peptide; overlaps glutamate site"}, "Sa GS": {"biological_target": "T4, Sa GS (Staphylococcus aureus, UniProt P0A040)", "T4 construct": "gene glnA; full-length, synthetic gene in pET15b, N-terminal His-tag, E. coli C41(DE3); tag removed only for crystallography; dodecamer (double hexamer ring)", "T4 sequence (P0A040 1-446)": "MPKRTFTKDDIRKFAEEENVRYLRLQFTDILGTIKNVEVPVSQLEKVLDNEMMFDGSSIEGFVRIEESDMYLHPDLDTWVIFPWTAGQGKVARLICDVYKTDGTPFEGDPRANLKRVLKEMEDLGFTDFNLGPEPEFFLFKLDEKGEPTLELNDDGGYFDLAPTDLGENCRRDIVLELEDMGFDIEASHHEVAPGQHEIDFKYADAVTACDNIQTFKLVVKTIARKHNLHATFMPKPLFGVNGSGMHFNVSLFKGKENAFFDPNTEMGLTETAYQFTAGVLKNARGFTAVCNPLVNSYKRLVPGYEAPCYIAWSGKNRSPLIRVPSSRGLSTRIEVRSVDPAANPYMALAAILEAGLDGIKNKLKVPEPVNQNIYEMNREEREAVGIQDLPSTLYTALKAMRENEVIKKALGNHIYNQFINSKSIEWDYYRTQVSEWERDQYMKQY", "experiment": "isothermal titration calorimetry"}}, "data": [{"smiles": "NC(=O)CC[C@H](N)C(=O)O", "note": "[glutamine]", "values": [{"measurement": "cryo-EM structure 1.96 Å", "setting": "Bs GS", "value": "Glutamine binds identically in each structure to form FBI-GS"}, {"measurement": "cryo-EM structure 2.61 Å", "setting": "Lm GS", "value": "Glutamine binds identically in each structure to form FBI-GS"}, {"measurement": "cryo-EM structure 2.07-2.28 Å", "setting": "Pp GS", "value": "Glutamine binds identically in each structure to form FBI-GS"}, {"measurement": "Kd", "setting": "Sa GS", "value": 500, "unit": "µM"}]}]}
